Test results: PubChem BioAssay (NCI)
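Cells were grown in 96-well plates and exposed to each compound for 48 hours at five concentrations; endpoints were interpolated linearly between bracketing concentrations, or set to the highest concentration if not reached. GI50 marks 50% less growth. TGI denotes the concentration required for complete inhibition of growth.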

Key:
Assay in all cases: DTP human tumour cell line panel, 48 h; in the data active = GI50 below about 0.43 µM; inactive = the rest
786-0 renal = tested on: 786-0 renal
A498 renal = tested on: A498 renal
A549 NSCLC = tested on: A549 NSCLC
ACHN renal = tested on: ACHN renal
BT-549 breast = tested on: BT-549 breast
CAKI-1 renal = tested on: CAKI-1 renal
CCRF-CEM leukemia = tested on: CCRF-CEM leukemia
DU-145 prostate = tested on: DU-145 prostate
EKVX NSCLC = tested on: EKVX NSCLC
HCT-116 colon = tested on: HCT-116 colon
HCT-15 colon = tested on: HCT-15 colon
HOP-62 NSCLC = tested on: HOP-62 NSCLC
HOP-92 NSCLC = tested on: HOP-92 NSCLC
HS 578T breast = tested on: HS 578T breast
HT29 colon = tested on: HT29 colon
IGROV1 ovarian = tested on: IGROV1 ovarian
K-562 leukemia = tested on: K-562 leukemia
KM12 colon = tested on: KM12 colon
LOX IMVI melanoma = tested on: LOX IMVI melanoma
M14 melanoma = tested on: M14 melanoma
MALME-3M melanoma = tested on: MALME-3M melanoma
MDA-MB-231 breast = tested on: MDA-MB-231 breast
MDA-MB-435 = tested on: MDA-MB-435
MOLT-4 leukemia = tested on: MOLT-4 leukemia
NCI-H226 lung = tested on: NCI-H226 lung
NCI-H23 lung = tested on: NCI-H23 lung
NCI-H460 lung = tested on: NCI-H460 lung
NCI-H522 lung = tested on: NCI-H522 lung
NCI/ADR-RES ovarian = tested on: NCI/ADR-RES ovarian
OVCAR-3 ovarian = tested on: OVCAR-3 ovarian
OVCAR-4 ovarian = tested on: OVCAR-4 ovarian
OVCAR-5 ovarian = tested on: OVCAR-5 ovarian
OVCAR-8 ovarian = tested on: OVCAR-8 ovarian
PC-3 prostate = tested on: PC-3 prostate
RXF 393 renal = tested on: RXF 393 renal
SF-268 CNS = tested on: SF-268 CNS
SF-295 CNS = tested on: SF-295 CNS
SK-MEL-2 melanoma = tested on: SK-MEL-2 melanoma
SK-MEL-28 melanoma = tested on: SK-MEL-28 melanoma
SK-MEL-5 melanoma = tested on: SK-MEL-5 melanoma
SN12C renal = tested on: SN12C renal
SNB-19 CNS = tested on: SNB-19 CNS
SNB-75 CNS = tested on: SNB-75 CNS
SR leukemia = tested on: SR leukemia
SW-620 colon = tested on: SW-620 colon
T-47D breast = tested on: T-47D breast
TK-10 renal = tested on: TK-10 renal
U251 CNS = tested on: U251 CNS
UACC-62 melanoma = tested on: UACC-62 melanoma
UO-31 renal = tested on: UO-31 renal
COLO 205 colon = tested on: COLO 205 colon
HCC-2998 colon = tested on: HCC-2998 colon
HL-60(TB) leukemia = tested on: HL-60(TB) leukemia
MCF7 breast = tested on: MCF7 breast
RPMI-8226 leukemia = tested on: RPMI-8226 leukemia
SF-539 CNS = tested on: SF-539 CNS
SK-OV-3 ovarian = tested on: SK-OV-3 ovarian
UACC-257 melanoma = tested on: UACC-257 melanoma

O=C(Nc1cc[c]([Sb](=[O])([OH])[OH])cc1)c1ccccc1
inactive: GI50 (786-0 renal) > 100 µM | GI50 (A498 renal) > 100 µM | GI50 (A549 NSCLC) > 100 µM | GI50 (ACHN renal) > 100 µM | GI50 (BT-549 breast) > 100 µM | GI50 (CAKI-1 renal) > 100 µM | GI50 (CCRF-CEM leukemia) > 100 µM | GI50 (DU-145 prostate) > 100 µM | GI50 (EKVX NSCLC) > 100 µM | GI50 (HCT-116 colon) > 100 µM | GI50 (HCT-15 colon) > 100 µM | GI50 (HOP-62 NSCLC) > 100 µM | GI50 (HOP-92 NSCLC) > 100 µM | GI50 (HS 578T breast) > 100 µM | GI50 (HT29 colon) > 100 µM | GI50 (IGROV1 ovarian) > 100 µM | GI50 (K-562 leukemia) > 100 µM | GI50 (KM12 colon) > 100 µM | GI50 (LOX IMVI melanoma) > 100 µM | GI50 (M14 melanoma) > 100 µM | GI50 (MALME-3M melanoma) > 100 µM | GI50 (MDA-MB-231 breast) > 100 µM | GI50 (MDA-MB-435) > 100 µM | GI50 (MOLT-4 leukemia) > 100 µM | GI50 (NCI-H226 lung) > 100 µM | GI50 (NCI-H23 lung) > 100 µM | GI50 (NCI-H460 lung) > 100 µM | GI50 (NCI-H522 lung) > 100 µM | GI50 (NCI/ADR-RES ovarian) > 100000 nM | GI50 (OVCAR-3 ovarian) > 100 µM | GI50 (OVCAR-4 ovarian) > 100000 nM | GI50 (OVCAR-5 ovarian) > 100 µM | GI50 (OVCAR-8 ovarian) > 100 µM | GI50 (PC-3 prostate) > 100 µM | GI50 (RXF 393 renal) > 100 µM | GI50 (SF-268 CNS) > 100 µM | GI50 (SF-295 CNS) > 100 µM | GI50 (SK-MEL-2 melanoma) > 100 µM | GI50 (SK-MEL-28 melanoma) > 100 µM | GI50 (SK-MEL-5 melanoma) > 100 µM | GI50 (SN12C renal) > 100 µM | GI50 (SNB-19 CNS) > 100 µM | GI50 (SNB-75 CNS) > 100 µM | GI50 (SR leukemia) > 100 µM | GI50 (SW-620 colon) > 100 µM | GI50 (T-47D breast) > 100 µM | GI50 (TK-10 renal) > 100 µM | GI50 (U251 CNS) > 100 µM | GI50 (UACC-62 melanoma) > 100 µM | GI50 (UO-31 renal) > 100 µM
> 100000 nM: TGI (BT-549 breast) | TGI (DU-145 prostate) | TGI (HCT-116 colon) | TGI (SF-295 CNS) | TGI (SK-MEL-5 melanoma)
> 100 µM: TGI (786-0 renal) | TGI (A498 renal) | TGI (A549 NSCLC) | TGI (ACHN renal) | TGI (CAKI-1 renal) | TGI (CCRF-CEM leukemia) | TGI (EKVX NSCLC) | TGI (HCT-15 colon) | TGI (HOP-62 NSCLC) | TGI (HOP-92 NSCLC) | TGI (HS 578T breast) | TGI (HT29 colon) | TGI (IGROV1 ovarian) | TGI (K-562 leukemia) | TGI (KM12 colon) | TGI (LOX IMVI melanoma) | TGI (M14 melanoma) | TGI (MALME-3M melanoma) | TGI (MDA-MB-231 breast) | TGI (MDA-MB-435) | TGI (MOLT-4 leukemia) | TGI (NCI-H226 lung) | TGI (NCI-H23 lung) | TGI (NCI-H460 lung) | TGI (NCI-H522 lung) | TGI (NCI/ADR-RES ovarian) | TGI (OVCAR-3 ovarian) | TGI (OVCAR-4 ovarian) | TGI (OVCAR-5 ovarian) | TGI (OVCAR-8 ovarian) | TGI (PC-3 prostate) | TGI (RXF 393 renal) | TGI (SF-268 CNS) | TGI (SK-MEL-2 melanoma) | TGI (SK-MEL-28 melanoma) | TGI (SN12C renal) | TGI (SNB-19 CNS) | TGI (SNB-75 CNS) | TGI (SR leukemia) | TGI (SW-620 colon) | TGI (T-47D breast) | TGI (TK-10 renal) | TGI (U251 CNS) | TGI (UACC-62 melanoma) | TGI (UO-31 renal)

COc1c(Cl)c2c(c(OC)c1OC)-c1ccc(SC)c(=O)cc1[C@@H](NC(=O)OCC(F)(F)F)CC2
21.2 µM: TGI (UACC-62 melanoma)
31.4 nM: TGI (COLO 205 colon)
218 nM: TGI (HCT-116 colon)
7.03 µM: TGI (HOP-92 NSCLC)
42.6 µM: TGI (MALME-3M melanoma)
> 30.4 µM: TGI (786-0 renal)
< 10 nM: TGI (HL-60(TB) leukemia) | TGI (SF-539 CNS)
active: GI50 (786-0 renal) < 0.01 µM | GI50 (A498 renal) < 0.01 µM | GI50 (A549 NSCLC) < 0.01 µM | GI50 (ACHN renal) < 0.01 µM | GI50 (BT-549 breast) < 0.01 µM | GI50 (CAKI-1 renal) < 0.0227 µM | GI50 (CCRF-CEM leukemia) < 0.01 µM | GI50 (COLO 205 colon) < 10 nM | GI50 (DU-145 prostate) < 0.01 µM | GI50 (EKVX NSCLC) < 0.01 µM | GI50 (HCC-2998 colon) < 10 nM | GI50 (HCT-116 colon) < 0.01 µM | GI50 (HCT-15 colon) < 0.01 µM | GI50 (HL-60(TB) leukemia) < 10 nM | GI50 (HOP-62 NSCLC) < 0.01 µM | GI50 (HOP-92 NSCLC) < 0.0179 µM | GI50 (HS 578T breast) < 0.01 µM | GI50 (HT29 colon) < 0.01 µM | GI50 (IGROV1 ovarian) < 0.01 µM | GI50 (K-562 leukemia) < 0.01 µM | GI50 (KM12 colon) < 0.01 µM | GI50 (LOX IMVI melanoma) < 0.01 µM | GI50 (M14 melanoma) < 0.01 µM | GI50 (MALME-3M melanoma) < 0.0104 µM | GI50 (MCF7 breast) < 10 nM | GI50 (MDA-MB-231 breast) < 0.01 µM | GI50 (MDA-MB-435) < 0.01 µM | GI50 (MOLT-4 leukemia) < 0.01 µM | GI50 (NCI-H226 lung) < 0.01 µM | GI50 (NCI-H23 lung) < 0.01 µM | GI50 (NCI-H460 lung) < 0.01 µM | GI50 (NCI-H522 lung) < 0.01 µM | GI50 (NCI/ADR-RES ovarian) 18.2 nM | GI50 (OVCAR-3 ovarian) < 0.01 µM | GI50 (OVCAR-4 ovarian) 88.9 nM | GI50 (OVCAR-5 ovarian) < 0.01 µM | GI50 (OVCAR-8 ovarian) < 0.01 µM | GI50 (PC-3 prostate) < 0.01 µM | GI50 (RPMI-8226 leukemia) < 10 nM | GI50 (SF-268 CNS) < 0.0105 µM | GI50 (SF-295 CNS) < 0.01 µM | GI50 (SF-539 CNS) < 10 nM | GI50 (SK-MEL-5 melanoma) < 0.01 µM | GI50 (SK-OV-3 ovarian) < 10 nM | GI50 (SN12C renal) < 0.01 µM | GI50 (SNB-19 CNS) < 0.01 µM | GI50 (SNB-75 CNS) < 0.01 µM | GI50 (SR leukemia) < 0.01 µM | GI50 (SW-620 colon) < 0.01 µM | GI50 (U251 CNS) < 0.01 µM | GI50 (UACC-62 melanoma) < 0.01 µM
> 61.9 µM: TGI (UO-31 renal)
inactive: GI50 (SK-MEL-2 melanoma) 4.2 µM | GI50 (SK-MEL-28 melanoma) 5.99 µM | GI50 (TK-10 renal) 6.11 µM | GI50 (UACC-257 melanoma) 9.61 µM
17.9 µM: TGI (SR leukemia)
2980 nM: TGI (SF-295 CNS)
> 100 µM: TGI (A549 NSCLC) | TGI (ACHN renal) | TGI (CCRF-CEM leukemia) | TGI (EKVX NSCLC) | TGI (HOP-62 NSCLC) | TGI (HS 578T breast) | TGI (IGROV1 ovarian) | TGI (K-562 leukemia) | TGI (LOX IMVI melanoma) | TGI (MCF7 breast) | TGI (MOLT-4 leukemia) | TGI (NCI-H23 lung) | TGI (OVCAR-4 ovarian) | TGI (OVCAR-5 ovarian) | TGI (OVCAR-8 ovarian) | TGI (SK-MEL-2 melanoma) | TGI (SK-MEL-28 melanoma) | TGI (SK-OV-3 ovarian) | TGI (SN12C renal) | TGI (SNB-19 CNS) | TGI (SNB-75 CNS) | TGI (SW-620 colon) | TGI (TK-10 renal) | TGI (UACC-257 melanoma)
> 72.8 µM: TGI (PC-3 prostate)
18.4 nM: TGI (SK-MEL-5 melanoma)
10.2 µM: TGI (NCI-H460 lung)
8.21 µM: TGI (RPMI-8226 leukemia)
3.46 µM: TGI (NCI-H522 lung)
> 90.5 µM: TGI (SF-268 CNS)
> 61.3 µM: TGI (HCT-15 colon)
> 56.8 µM: TGI (CAKI-1 renal)
4.26 µM: TGI (KM12 colon)
3.24 µM: TGI (MDA-MB-231 breast)
956 nM: TGI (BT-549 breast)
> 39.2 µM: TGI (U251 CNS)
41.5 µM: TGI (NCI-H226 lung)
< 0.01 µM: TGI (A498 renal) | TGI (MDA-MB-435) | TGI (OVCAR-3 ovarian)
3.99 µM: TGI (HCC-2998 colon)
23.8 µM: TGI (HT29 colon)
871 nM: TGI (DU-145 prostate)
